Reference: US5145781A (priority 1989, dated 1992)

Experiments:
[1] = Water-solubility, light-resistance and stability (general statements); assay type: physicochemical
[2] = cited from earlier work
7 week-old dd mice = test: Acute toxicity test, oral administration to mice; assay type: in vivo; details: orally administered
alpha-glucosidase = test: Hydrolysis by alpha-glucosidase from pig liver; assay type: biochemical; details: alpha-glucosidase extracted from pig liver, partially purified

Row | SMILES | stability in an alkaline solution [1] | solubility in water ([2]; ambient temperature) | solubility in water, in words [2] | acute toxicity, in words (7 week-old dd mice) | mortality (7 week-old dd mice; up to 5g, higher dose was difficult) | hydrolysis by alpha-glucosidase (alpha-glucosidase)
1 | C[C@@H]1O[C@@H](OC[C@H]2O[C@@H](Oc3c(-c4ccc(O)c(O)c4)oc4cc(O)cc(O)c4c3=O)[C@H](O)[C@@H](O)[C@@H]2O)[C@H](O)[C@H](O)[C@H]1O [rutin] | tends to readily decompose | about 0.01 w/v % | hardly soluble in water | – | – | –
2 | C[C@@H]1O[C@@H](OC[C@H]2O[C@@H](Oc3c(-c4ccc(O)c(O)c4)oc4cc(O)cc(O)c4c3=O)[C@H](O)[C@@H](O)[C@@H]2O[C@H]2O[C@H](CO)[C@@H](O)[C@H](O)[C@H]2O)[C@H](O)[C@H](O)[C@H]1O [Example A-2, alpha-glucosyl rutin] | – | – | – | extremely low | the same result | hydrolyzed the alphaglucosyl rutin into rutin and D-glucose
